Results from patent US10738035B2, “Hepatitis B antiviral agents” (Enanta Pharmaceuticals, Inc., priority 2015, dated 2020).

Test system: hepatitis B virus (HBV)
Assay: HepAD38 antiviral assay (viral product accumulation, EC50)
Details: HePAD38, 120 h, read-out: HepAD38 EC50
Description: (§1) Briefly, cells are passaged upon attaining confluency in DMEM/F12 media in the presence of 10% FBS, Penn/Strep, 250 μg/mL G418, and 1 μg/ml tetracycline. Novel compounds are screened by first washing cells three times with PBS to remove tetracycline, and plating in 96 well plates at 35,000 cells/well. Compounds dissolved in DMSO are then diluted 1:200 into wells containing cells. Five days after compound addition, material is harvested for analysis.
On harvest day, virion DNA is obtained by lysing with Sidestep Lysis and Stabilization Buffer and then quantified via quantitative real time PCR. Commercially available ELISA kits are used to quantitate the viral proteins HBsAg (Alpco) or HbeAg (US Biological) by following the manufacturer's recommended protocol after diluting samples to match the linear range of their respective assays.

`Cn1nc(NC(=O)N2CCC(O)CC2)cc1C(=O)Nc1ccc(O)c(F)c1` [Example 35] and `Cn1nc(NC(=O)N2CCC(O)CC2)cc1C(=O)Nc1ccc(F)c(O)c1` [Example 50] cannot be ordered by EC50: greater than 10 µM for the first, greater than 10 µM for the second.

Compared with `Cn1nc(NC(=O)N2CCC(O)CC2)cc1C(=O)Nc1cc(F)c(Cl)c(F)c1` [Example 36], `Cn1nc(NC(=O)N2CCC(O)CC2)cc1C(=O)Nc1cc(F)c(F)c(Cl)c1` [Example 60] is lower in EC50: greater than 10 µM for the first, 1 to 10 µM for the second. The second is the more potent here.

`Cn1nc(NC(=O)N2CCC(O)CC2)cc1C(=O)Nc1cccnc1` [Example 37] and `Cn1nc(NC(=O)N2CCC(O)CC2)cc1C(=O)Nc1ccncc1` [Example 56] cannot be ordered by EC50: greater than 10 µM for the first, greater than 10 µM for the second.

Compared with `Cn1nc(NC(=O)N2CC(O)C2)cc1C(=O)Nc1cc(F)c(F)c(F)c1` [Example 38], `CCN(C)C(=O)Nc1cc(C(=O)Nc2cc(F)c(F)c(F)c2)n(C)n1` [Example 40] is higher in EC50: less than 1 µM for the first, 1 to 10 µM for the second. The first is the more potent here.

First: CN(CCCO)C(=O)Nc1cc(C(=O)Nc2cc(F)c(F)c(F)c2)n(C)n1 [Example 39]
Second: CC(C)CN(C)C(=O)Nc1cc(C(=O)Nc2cc(F)c(F)c(F)c2)n(C)n1 [Example 41]
The EC50 of the first is higher: 1 to 10 µM for the first, less than 1 µM for the second. The second is the more potent here.

`Cn1nc(NC(=O)NCCS(C)(=O)=O)cc1C(=O)Nc1cc(F)c(F)c(F)c1` [Example 42] and `CC(C)N(C)C(=O)Nc1cc(C(=O)Nc2cc(F)c(F)c(F)c2)n(C)n1` [Example 57] fall in the same range of EC50: 1 to 10 µM for the first, 1 to 10 µM for the second.

First: Cn1nc(NC(=O)N2CCC(O)CC2)cc1C(=O)Nc1cccc(F)c1 [Example 43]
Second: Cn1nc(NC(=O)N2CCC(O)CC2)cc1C(=O)Nc1cccc(O)c1 [Example 63]
The EC50 of the first is lower: 1 to 10 µM for the first, greater than 10 µM for the second.

`Cn1nc(NC(=O)N2CCC(O)CC2)cc1C(=O)Nc1ccc(F)c(F)c1` [Example 44] and `Cn1nc(NC(=O)N2CCC(O)CC2)cc1C(=O)Nc1ccc(F)c(Cl)c1` [Example 48] fall in the same range of EC50: 1 to 10 µM for the first, 1 to 10 µM for the second.

Compared with `Cn1nc(NC(=O)N2CCC(O)CC2)cc1C(=O)Nc1cccc(F)c1F` [Example 45], `Cn1nc(NC(=O)N2CCC(O)CC2)cc1C(=O)Nc1ccc(F)cc1F` [Example 47] is higher in EC50: 1 to 10 µM for the first, greater than 10 µM for the second.

Compared with `Cn1nc(NC(=O)N2CCC(O)CC2)cc1C(=O)Nc1cc(F)cc(F)c1` [Example 46], `Cn1nc(NC(=O)N2CCC(O)CC2)cc1C(=O)Nc1ccc(Cl)c(F)c1` [Example 49] is lower in EC50: greater than 10 µM for the first, 1 to 10 µM for the second.

`Cn1nc(NC(=O)N2CCC(O)CC2)cc1C(=O)Nc1ccccc1` [Example 51] and `Cn1nc(NC(=O)N2CCC(O)CC2)cc1C(=O)Nc1ccc(O)cc1` [Example 62] cannot be ordered by EC50: greater than 10 µM for the first, greater than 10 µM for the second.

Compared with `Cn1nc(NC(=O)N2CCC(O)CC2)cc1C(=O)Nc1ccc(F)c(C(F)(F)F)c1` [Example 52], `Cc1cc(NC(=O)c2cc(NC(=O)N3CCC(O)CC3)nn2C)ccc1F` [Example 54] is lower in EC50: 1 to 10 µM for the first, less than 1 µM for the second.

First: Cn1nc(NC(=O)N2CCC(O)CC2)cc1C(=O)Nc1ccc(F)c(C#N)c1 [Example 53]
Second: COc1cc(NC(=O)c2cc(NC(=O)N3CCC(O)CC3)nn2C)ccc1F [Example 55]
The EC50 of the first is lower: 1 to 10 µM for the first, greater than 10 µM for the second.

`CN(C(=O)N1CCC(O)CC1)c1cc(C(=O)Nc2cc(F)c(F)c(F)c2)n(C)n1` [Example 58] and `CC(C)c1cccc(NC(=O)c2cc(NC(=O)N3CCC(O)CC3)nn2C)c1` [Example 68] cannot be ordered by EC50: greater than 10 µM for the first, greater than 10 µM for the second.

`Cn1nc(NC(=O)N2CCC(O)CC2)cc1C(=O)Nc1ccc(F)cc1Cl` [Example 59] and `COc1cccc(NC(=O)c2cc(NC(=O)N3CCC(O)CC3)nn2C)c1` [Example 65] cannot be ordered by EC50: greater than 10 µM for the first, greater than 10 µM for the second.

`Cn1nc(NC(=O)N2CCC(O)CC2)cc1C(=O)Nc1ccccn1` [Example 61] and `COc1ccc(NC(=O)c2cc(NC(=O)N3CCC(O)CC3)nn2C)cc1` [Example 64] cannot be ordered by EC50: greater than 10 µM for the first, greater than 10 µM for the second.

`CCc1ccc(NC(=O)c2cc(NC(=O)N3CCC(O)CC3)nn2C)cc1` [Example 66] and `CC(C)c1ccc(NC(=O)c2cc(NC(=O)N3CCC(O)CC3)nn2C)cc1` [Example 67] cannot be ordered by EC50: greater than 10 µM for the first, greater than 10 µM for the second.

With `Cn1nc(NC(=O)N2CCC(O)CC2)cc1C(=O)Nc1ccc(C(C)(C)C)cc1` [Example 69] the EC50 was greater than 10 µM.

Test system: not listed separately
Assay: Compound toxicity, ATPLite (CC50)
Details: human, HepAD38 cells
Description: as §1
Compound toxicity is evaluated by seeding cells at 15,000 cells/well and treating with compound as described above.

`Cn1nc(NC(=O)N2CCC(O)CC2)cc1C(=O)Nc1ccc(O)c(F)c1` [Example 35] and `Cn1nc(NC(=O)N2CCC(O)CC2)cc1C(=O)Nc1ccc(F)c(O)c1` [Example 50] cannot be ordered by CC50 at 3 days: greater than 30 µM for the first, greater than 30 µM for the second.

First: Cn1nc(NC(=O)N2CCC(O)CC2)cc1C(=O)Nc1cc(F)c(Cl)c(F)c1 [Example 36]
Second: Cn1nc(NC(=O)N2CCC(O)CC2)cc1C(=O)Nc1cc(F)c(F)c(Cl)c1 [Example 60]
The CC50 at 3 days of the first is higher: greater than 30 µM for the first, less than 10 µM for the second.

`Cn1nc(NC(=O)N2CCC(O)CC2)cc1C(=O)Nc1cccnc1` [Example 37] and `Cn1nc(NC(=O)N2CCC(O)CC2)cc1C(=O)Nc1ccncc1` [Example 56] cannot be ordered by CC50 at 3 days: greater than 30 µM for the first, greater than 30 µM for the second.

First: Cn1nc(NC(=O)N2CC(O)C2)cc1C(=O)Nc1cc(F)c(F)c(F)c1 [Example 38]
Second: CCN(C)C(=O)Nc1cc(C(=O)Nc2cc(F)c(F)c(F)c2)n(C)n1 [Example 40]
The CC50 at 3 days of the first is higher: 10 to 30 µM for the first, less than 10 µM for the second.

`CN(CCCO)C(=O)Nc1cc(C(=O)Nc2cc(F)c(F)c(F)c2)n(C)n1` [Example 39] and `CC(C)CN(C)C(=O)Nc1cc(C(=O)Nc2cc(F)c(F)c(F)c2)n(C)n1` [Example 41] cannot be ordered by CC50 at 3 days: greater than 30 µM for the first, greater than 30 µM for the second.

Going from `Cn1nc(NC(=O)NCCS(C)(=O)=O)cc1C(=O)Nc1cc(F)c(F)c(F)c1` [Example 42] to `CC(C)N(C)C(=O)Nc1cc(C(=O)Nc2cc(F)c(F)c(F)c2)n(C)n1` [Example 57], the CC50 at 3 days falls from greater than 30 µM to less than 10 µM.

`Cn1nc(NC(=O)N2CCC(O)CC2)cc1C(=O)Nc1cccc(F)c1` [Example 43] and `Cn1nc(NC(=O)N2CCC(O)CC2)cc1C(=O)Nc1cccc(O)c1` [Example 63] cannot be ordered by CC50 at 3 days: greater than 30 µM for the first, greater than 30 µM for the second.

First: Cn1nc(NC(=O)N2CCC(O)CC2)cc1C(=O)Nc1ccc(F)c(F)c1 [Example 44]
Second: Cn1nc(NC(=O)N2CCC(O)CC2)cc1C(=O)Nc1ccc(F)c(Cl)c1 [Example 48]
The CC50 at 3 days of the first is higher: greater than 30 µM for the first, less than 10 µM for the second.

`Cn1nc(NC(=O)N2CCC(O)CC2)cc1C(=O)Nc1cccc(F)c1F` [Example 45] and `Cn1nc(NC(=O)N2CCC(O)CC2)cc1C(=O)Nc1ccc(F)cc1F` [Example 47] cannot be ordered by CC50 at 3 days: greater than 30 µM for the first, greater than 30 µM for the second.

Compared with `Cn1nc(NC(=O)N2CCC(O)CC2)cc1C(=O)Nc1cc(F)cc(F)c1` [Example 46], `Cn1nc(NC(=O)N2CCC(O)CC2)cc1C(=O)Nc1ccc(Cl)c(F)c1` [Example 49] is higher in CC50 at 3 days: 10 to 30 µM for the first, greater than 30 µM for the second.

`Cn1nc(NC(=O)N2CCC(O)CC2)cc1C(=O)Nc1ccccc1` [Example 51] and `Cn1nc(NC(=O)N2CCC(O)CC2)cc1C(=O)Nc1ccc(O)cc1` [Example 62] cannot be ordered by CC50 at 3 days: greater than 30 µM for the first, greater than 30 µM for the second.

Compared with `Cn1nc(NC(=O)N2CCC(O)CC2)cc1C(=O)Nc1ccc(F)c(C(F)(F)F)c1` [Example 52], `Cc1cc(NC(=O)c2cc(NC(=O)N3CCC(O)CC3)nn2C)ccc1F` [Example 54] is lower in CC50 at 3 days: greater than 30 µM for the first, less than 10 µM for the second.

`Cn1nc(NC(=O)N2CCC(O)CC2)cc1C(=O)Nc1ccc(F)c(C#N)c1` [Example 53] and `COc1cc(NC(=O)c2cc(NC(=O)N3CCC(O)CC3)nn2C)ccc1F` [Example 55] cannot be ordered by CC50 at 3 days: greater than 30 µM for the first, greater than 30 µM for the second.

`CN(C(=O)N1CCC(O)CC1)c1cc(C(=O)Nc2cc(F)c(F)c(F)c2)n(C)n1` [Example 58] and `CC(C)c1cccc(NC(=O)c2cc(NC(=O)N3CCC(O)CC3)nn2C)c1` [Example 68] cannot be ordered by CC50 at 3 days: greater than 30 µM for the first, greater than 10 µM for the second.

`Cn1nc(NC(=O)N2CCC(O)CC2)cc1C(=O)Nc1ccc(F)cc1Cl` [Example 59] and `COc1cccc(NC(=O)c2cc(NC(=O)N3CCC(O)CC3)nn2C)c1` [Example 65] cannot be ordered by CC50 at 3 days: greater than 30 µM for the first, greater than 30 µM for the second.

`Cn1nc(NC(=O)N2CCC(O)CC2)cc1C(=O)Nc1ccccn1` [Example 61] and `COc1ccc(NC(=O)c2cc(NC(=O)N3CCC(O)CC3)nn2C)cc1` [Example 64] cannot be ordered by CC50 at 3 days: greater than 30 µM for the first, greater than 30 µM for the second.

`CCc1ccc(NC(=O)c2cc(NC(=O)N3CCC(O)CC3)nn2C)cc1` [Example 66] and `CC(C)c1ccc(NC(=O)c2cc(NC(=O)N3CCC(O)CC3)nn2C)cc1` [Example 67] cannot be ordered by CC50 at 3 days: greater than 30 µM for the first, greater than 30 µM for the second.

With `Cn1nc(NC(=O)N2CCC(O)CC2)cc1C(=O)Nc1ccc(C(C)(C)C)cc1` [Example 69] the CC50 at 3 days was greater than 30 µM.
